Test results as given in PMC7714403 (JCI Insight, 2020).

Legend:
[1] = target: T1, LATS2 (Homo sapiens, UniProt Q9NRM7); test: KiNativ, OCI cells live cell; assay type: cell-based
T1 sequence (Q9NRM7 1-1088): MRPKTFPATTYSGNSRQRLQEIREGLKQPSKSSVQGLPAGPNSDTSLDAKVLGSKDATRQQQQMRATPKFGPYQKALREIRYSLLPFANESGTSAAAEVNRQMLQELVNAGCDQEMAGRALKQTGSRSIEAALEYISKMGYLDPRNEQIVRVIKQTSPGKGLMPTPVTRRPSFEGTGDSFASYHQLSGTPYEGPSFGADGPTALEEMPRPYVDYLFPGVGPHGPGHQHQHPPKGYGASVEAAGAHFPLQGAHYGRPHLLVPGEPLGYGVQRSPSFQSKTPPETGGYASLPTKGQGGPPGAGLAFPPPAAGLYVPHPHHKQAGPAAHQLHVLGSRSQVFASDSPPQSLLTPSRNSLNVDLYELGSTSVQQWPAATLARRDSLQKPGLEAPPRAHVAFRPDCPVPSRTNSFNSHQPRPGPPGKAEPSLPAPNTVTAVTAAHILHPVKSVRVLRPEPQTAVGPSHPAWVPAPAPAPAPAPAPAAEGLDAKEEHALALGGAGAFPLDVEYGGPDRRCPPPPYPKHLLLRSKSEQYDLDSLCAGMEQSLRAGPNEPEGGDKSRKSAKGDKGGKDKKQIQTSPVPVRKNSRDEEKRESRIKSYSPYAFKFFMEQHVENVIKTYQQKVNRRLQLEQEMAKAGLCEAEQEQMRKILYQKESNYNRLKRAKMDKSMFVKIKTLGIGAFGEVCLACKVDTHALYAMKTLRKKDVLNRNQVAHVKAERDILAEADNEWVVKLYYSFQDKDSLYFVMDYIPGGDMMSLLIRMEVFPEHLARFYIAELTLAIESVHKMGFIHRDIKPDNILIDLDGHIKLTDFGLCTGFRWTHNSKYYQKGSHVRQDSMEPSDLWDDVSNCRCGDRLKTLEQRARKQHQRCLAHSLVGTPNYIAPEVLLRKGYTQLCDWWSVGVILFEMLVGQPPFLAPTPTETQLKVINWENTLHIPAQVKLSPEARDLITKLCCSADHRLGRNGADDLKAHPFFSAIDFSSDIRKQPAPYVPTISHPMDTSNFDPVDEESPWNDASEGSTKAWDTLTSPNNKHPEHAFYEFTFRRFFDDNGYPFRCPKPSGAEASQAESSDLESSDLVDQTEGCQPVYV

[2] = target: DLK (Homo sapiens, UniProt Q12852); test: KiNativ, OCI cells live cell; assay type: cell-based; conditions: labeling site Lys2, peptide DLKSPNMLITYDDVVK
[3] = target: FAM20B (Homo sapiens, UniProt O75063); test: KiNativ, OCI cells live cell; assay type: cell-based; conditions: 2 h, labeling site ATP, peptide […]
[4] = target: ROCK1 (Homo sapiens, UniProt Q13464); test: KiNativ, OCI cells live cell; assay type: cell-based; conditions: 2 h, labeling site Other, peptide […]
[5] = target: MAP3K6 (Homo sapiens, UniProt O95382); test: KiNativ, OCI cells live cell; assay type: cell-based; conditions: 2 h, labeling site Lys2, peptide […]
[6] = target: CaMK2g (Homo sapiens, UniProt Q13555); test: KiNativ, OCI cells live cell; assay type: cell-based; conditions: 2 h, labeling site Lys1, peptide […]
[7] = target: SYK (Homo sapiens, UniProt P43405); test: KiNativ, OCI cells live cell; assay type: cell-based
[8] = target: CSK (Homo sapiens, UniProt P41240); test: KiNativ, OCI cells live cell; assay type: cell-based
[9] = tested on: Wnk1, Wnk2, Wnk3; test: KiNativ, OCI cells live cell; assay type: cell-based, human; conditions: labeling site Lys2, peptide DLKCDNIFITGPTGSVK
[10] = target: MAP4K5 (Homo sapiens, UniProt Q9Y4K4); test: KiNativ, OCI cells live cell; assay type: cell-based; conditions: 2 h
[11] = target: BTK (Homo sapiens, UniProt Q06187); test: KiNativ, OCI cells live cell; assay type: cell-based; conditions: labeling site Activation Loop, peptide YVLDDEYTSSVGSKFPVR
[12] = target: T2, GCK (Homo sapiens, UniProt Q12851); test: Kinase assay by Reaction Biology; assay type: biochemical; parameters: purchased Eurofins DiscoverX
T2 sequence (Q12851 1-820): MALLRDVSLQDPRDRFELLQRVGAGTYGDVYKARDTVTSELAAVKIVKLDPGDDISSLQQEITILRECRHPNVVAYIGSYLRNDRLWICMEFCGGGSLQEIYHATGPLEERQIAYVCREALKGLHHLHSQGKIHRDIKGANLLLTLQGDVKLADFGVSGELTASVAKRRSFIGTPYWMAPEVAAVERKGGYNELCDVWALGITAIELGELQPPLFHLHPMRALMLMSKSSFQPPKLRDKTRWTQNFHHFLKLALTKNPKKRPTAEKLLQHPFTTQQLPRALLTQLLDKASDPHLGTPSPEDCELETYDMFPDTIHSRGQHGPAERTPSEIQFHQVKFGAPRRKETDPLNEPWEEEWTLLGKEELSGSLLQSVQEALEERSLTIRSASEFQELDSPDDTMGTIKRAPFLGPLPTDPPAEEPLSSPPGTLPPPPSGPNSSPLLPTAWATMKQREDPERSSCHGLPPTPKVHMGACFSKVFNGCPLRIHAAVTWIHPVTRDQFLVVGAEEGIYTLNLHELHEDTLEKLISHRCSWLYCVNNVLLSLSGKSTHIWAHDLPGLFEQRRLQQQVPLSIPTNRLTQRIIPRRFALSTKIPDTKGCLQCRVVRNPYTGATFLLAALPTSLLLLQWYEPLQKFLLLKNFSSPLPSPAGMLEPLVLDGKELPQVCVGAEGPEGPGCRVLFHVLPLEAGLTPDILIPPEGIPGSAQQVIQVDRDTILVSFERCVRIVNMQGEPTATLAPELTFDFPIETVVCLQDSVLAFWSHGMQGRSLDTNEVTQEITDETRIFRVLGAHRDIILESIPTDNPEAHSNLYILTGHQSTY

[13] = tested on: NEK6, NEK7; test: KiNativ, OCI cells live cell; assay type: cell-based, human; conditions: labeling site Lys2, peptide DIKPANVFITATGVVK

Sequence of CSK (P41240 whole entry): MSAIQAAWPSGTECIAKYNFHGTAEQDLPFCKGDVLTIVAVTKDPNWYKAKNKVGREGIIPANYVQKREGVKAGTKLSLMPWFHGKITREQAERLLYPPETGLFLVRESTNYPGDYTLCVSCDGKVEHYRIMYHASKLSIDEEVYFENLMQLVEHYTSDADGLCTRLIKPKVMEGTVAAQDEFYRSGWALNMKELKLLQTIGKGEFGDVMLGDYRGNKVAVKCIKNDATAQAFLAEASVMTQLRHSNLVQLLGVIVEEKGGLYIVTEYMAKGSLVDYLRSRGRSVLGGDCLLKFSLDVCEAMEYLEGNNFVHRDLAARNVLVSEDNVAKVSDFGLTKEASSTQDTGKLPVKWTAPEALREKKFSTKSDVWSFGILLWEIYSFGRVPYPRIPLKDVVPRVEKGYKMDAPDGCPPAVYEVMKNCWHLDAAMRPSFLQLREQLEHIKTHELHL
Sequence of MAP4K5 (Q9Y4K4 whole entry): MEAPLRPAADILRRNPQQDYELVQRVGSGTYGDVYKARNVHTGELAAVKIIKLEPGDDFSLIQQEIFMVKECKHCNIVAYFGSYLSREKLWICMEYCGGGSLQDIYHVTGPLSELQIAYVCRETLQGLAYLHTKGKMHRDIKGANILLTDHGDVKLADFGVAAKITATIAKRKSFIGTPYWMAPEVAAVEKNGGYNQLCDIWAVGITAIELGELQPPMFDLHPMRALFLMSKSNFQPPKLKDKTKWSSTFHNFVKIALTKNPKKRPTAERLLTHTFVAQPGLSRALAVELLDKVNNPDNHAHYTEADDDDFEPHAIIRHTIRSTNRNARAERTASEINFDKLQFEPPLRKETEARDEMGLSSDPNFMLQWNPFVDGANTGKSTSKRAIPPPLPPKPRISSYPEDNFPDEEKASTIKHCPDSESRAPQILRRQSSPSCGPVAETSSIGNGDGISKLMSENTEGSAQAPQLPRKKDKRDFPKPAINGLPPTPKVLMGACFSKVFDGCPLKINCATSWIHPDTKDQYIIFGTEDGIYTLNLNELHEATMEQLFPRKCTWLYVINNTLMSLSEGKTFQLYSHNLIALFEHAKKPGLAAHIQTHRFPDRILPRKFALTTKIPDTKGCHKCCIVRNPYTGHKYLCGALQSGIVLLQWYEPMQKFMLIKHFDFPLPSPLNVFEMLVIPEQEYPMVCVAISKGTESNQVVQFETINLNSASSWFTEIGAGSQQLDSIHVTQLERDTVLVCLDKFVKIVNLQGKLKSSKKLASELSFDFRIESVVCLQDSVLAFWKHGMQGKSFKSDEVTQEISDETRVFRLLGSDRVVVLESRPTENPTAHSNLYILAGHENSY
Sequence of BTK (Q06187 whole entry): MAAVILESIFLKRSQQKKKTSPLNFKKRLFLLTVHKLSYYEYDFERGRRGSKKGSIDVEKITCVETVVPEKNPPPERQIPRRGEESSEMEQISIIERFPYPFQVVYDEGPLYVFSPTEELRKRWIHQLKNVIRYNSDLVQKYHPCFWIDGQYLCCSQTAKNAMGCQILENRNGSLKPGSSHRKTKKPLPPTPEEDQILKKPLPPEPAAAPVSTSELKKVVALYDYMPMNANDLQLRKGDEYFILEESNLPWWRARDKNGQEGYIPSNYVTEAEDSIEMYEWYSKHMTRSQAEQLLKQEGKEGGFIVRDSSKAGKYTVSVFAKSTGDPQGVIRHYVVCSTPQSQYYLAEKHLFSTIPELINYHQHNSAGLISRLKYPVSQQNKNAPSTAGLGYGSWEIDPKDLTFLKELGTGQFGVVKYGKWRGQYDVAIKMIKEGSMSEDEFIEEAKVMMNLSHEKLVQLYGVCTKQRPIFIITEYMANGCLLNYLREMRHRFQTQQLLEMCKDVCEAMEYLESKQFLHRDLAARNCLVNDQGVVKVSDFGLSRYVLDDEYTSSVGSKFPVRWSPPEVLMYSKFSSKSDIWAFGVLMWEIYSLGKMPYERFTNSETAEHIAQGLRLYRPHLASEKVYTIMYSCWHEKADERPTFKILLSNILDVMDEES
Sequence of ROCK1 (Q13464 whole entry): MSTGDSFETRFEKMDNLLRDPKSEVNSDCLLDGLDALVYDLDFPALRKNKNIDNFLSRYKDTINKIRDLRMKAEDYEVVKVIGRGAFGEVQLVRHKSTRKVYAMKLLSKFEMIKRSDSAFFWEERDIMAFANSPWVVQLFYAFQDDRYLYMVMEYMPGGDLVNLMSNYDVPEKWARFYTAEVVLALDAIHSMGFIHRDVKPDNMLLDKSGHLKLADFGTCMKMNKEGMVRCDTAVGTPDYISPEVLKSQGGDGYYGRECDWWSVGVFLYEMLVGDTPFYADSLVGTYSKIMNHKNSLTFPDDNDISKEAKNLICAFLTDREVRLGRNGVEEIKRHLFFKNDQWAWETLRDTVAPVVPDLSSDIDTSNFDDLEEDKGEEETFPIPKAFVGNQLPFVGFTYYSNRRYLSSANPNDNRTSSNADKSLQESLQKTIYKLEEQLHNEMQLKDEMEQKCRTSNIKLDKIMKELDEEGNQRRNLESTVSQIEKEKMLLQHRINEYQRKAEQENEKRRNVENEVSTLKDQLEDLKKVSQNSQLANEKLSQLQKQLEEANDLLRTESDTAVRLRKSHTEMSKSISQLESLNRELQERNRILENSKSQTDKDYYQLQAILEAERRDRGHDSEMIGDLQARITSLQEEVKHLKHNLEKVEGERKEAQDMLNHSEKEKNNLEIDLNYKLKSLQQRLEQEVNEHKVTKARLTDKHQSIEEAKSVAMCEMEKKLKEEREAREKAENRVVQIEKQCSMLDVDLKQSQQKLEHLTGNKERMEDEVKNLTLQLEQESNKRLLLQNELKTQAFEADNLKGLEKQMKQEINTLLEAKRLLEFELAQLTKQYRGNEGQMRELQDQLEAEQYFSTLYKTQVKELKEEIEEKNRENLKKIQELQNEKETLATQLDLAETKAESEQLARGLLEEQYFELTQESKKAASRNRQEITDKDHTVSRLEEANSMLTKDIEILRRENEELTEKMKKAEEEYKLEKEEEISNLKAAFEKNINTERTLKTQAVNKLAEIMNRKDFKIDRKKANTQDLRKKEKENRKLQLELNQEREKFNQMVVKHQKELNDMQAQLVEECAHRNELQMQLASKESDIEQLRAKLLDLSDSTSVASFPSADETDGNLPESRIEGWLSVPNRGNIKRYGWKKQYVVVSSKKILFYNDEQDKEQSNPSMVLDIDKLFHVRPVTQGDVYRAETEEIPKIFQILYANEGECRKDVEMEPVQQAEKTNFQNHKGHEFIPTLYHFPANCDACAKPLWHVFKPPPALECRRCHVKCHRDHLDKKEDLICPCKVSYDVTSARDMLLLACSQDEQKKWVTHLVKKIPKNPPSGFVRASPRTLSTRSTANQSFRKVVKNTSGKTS
Sequence of CaMK2g (Q13555 whole entry): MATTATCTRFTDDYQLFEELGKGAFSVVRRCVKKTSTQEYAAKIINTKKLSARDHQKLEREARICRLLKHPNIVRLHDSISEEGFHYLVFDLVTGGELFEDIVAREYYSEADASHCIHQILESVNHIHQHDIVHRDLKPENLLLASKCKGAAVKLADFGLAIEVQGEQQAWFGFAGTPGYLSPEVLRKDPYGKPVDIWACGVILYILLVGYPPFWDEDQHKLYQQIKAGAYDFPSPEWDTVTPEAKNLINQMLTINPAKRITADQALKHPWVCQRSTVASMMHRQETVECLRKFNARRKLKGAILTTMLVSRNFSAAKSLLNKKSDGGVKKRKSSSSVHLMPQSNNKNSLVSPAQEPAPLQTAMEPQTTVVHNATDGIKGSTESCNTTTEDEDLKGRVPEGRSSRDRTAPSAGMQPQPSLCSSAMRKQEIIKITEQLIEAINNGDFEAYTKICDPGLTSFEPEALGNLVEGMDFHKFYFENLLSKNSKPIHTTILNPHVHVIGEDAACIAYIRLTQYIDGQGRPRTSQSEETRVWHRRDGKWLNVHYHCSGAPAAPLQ
Sequence of FAM20B (O75063 whole entry): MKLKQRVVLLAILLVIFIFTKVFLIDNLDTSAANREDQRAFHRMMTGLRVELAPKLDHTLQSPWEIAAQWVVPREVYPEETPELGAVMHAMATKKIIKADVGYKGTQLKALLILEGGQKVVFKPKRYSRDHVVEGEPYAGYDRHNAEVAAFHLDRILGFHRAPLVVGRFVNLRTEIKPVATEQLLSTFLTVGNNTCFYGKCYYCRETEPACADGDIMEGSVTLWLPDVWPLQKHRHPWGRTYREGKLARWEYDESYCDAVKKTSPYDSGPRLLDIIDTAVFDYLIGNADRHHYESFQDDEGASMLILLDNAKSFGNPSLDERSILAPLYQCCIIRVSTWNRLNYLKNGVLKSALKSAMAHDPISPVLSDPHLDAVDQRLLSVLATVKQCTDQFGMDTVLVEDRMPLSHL

## CN1CCN(Cc2ccc(Nc3ncc(Cl)c(Nc4ccccc4S(=O)(=O)N(C)C)n3)cc2)CC1 [TP-0903]
[1]; labeling site Lys1, peptide VDTHALYAMKTLR
  Inhibition: -1.0%
[1]; labeling site Lys2, peptide DIKPDNILIDLDGHIK
  Inhibition: -30.2%
[2]
  Inhibition: 91.0%
[3]
  inhibition at 0.1 µM: 7.4%
[4]
  inhibition at 0.1 µM: 25%
[5]
  inhibition at 0.1 µM: -13.5%
[6]
  inhibition at 0.1 µM: 31.6%
[7]; labeling site Activation Loop, peptide AQTHGKWPVK
  Inhibition: 39.8%
[7]; labeling site Activation Loop, peptide ISDFGLSKALR
  Inhibition: 38.5%
[7]; labeling site Lys1, peptide TVAVKILK
  Inhibition: 37.9%
[8]; labeling site Activation Loop, peptide VSDFGLTKEASSTQDTGKLPVK
  Inhibition: 11.9%
[8]; labeling site Lys1, peptide VAVKCIK
  Inhibition: 0.379%
[9]
  Inhibition: -14.9%
[10]; labeling site Lys1, peptide NVHTGELAAVKIIK
  inhibition at 0.1 µM: 28.4%
[10]; labeling site Lys2, peptide DIKGANILLTDHGDVK
  inhibition at 0.1 µM: 60.8%
[11]
  Inhibition: 57.3%
[12]
  IC50: 2.5 nM
[13]
  Inhibition: -9.6%
